From article PMC11984392, “EphA2-targeted alpha-particle theranostics for enhancing PDAC treatment” (Theranostics, 2025)
Read-outs that look alike come from different tables or passages of the source. *1 amine or outer side, *2 acyl side, *3 side chain or, on linkers, in order; H or OH if unused. Where a SMILES comes first, the peptide text is derived from it. Bridges are numbered along the chain shown (N, C = ends). [ ]: non-standard residue; d: D form. The star is where a group is joined. TATA = O=C(CC[*:1])N1CN(C(=O)CC[*:2])CN(C(=O)CC[*:3])C1; NOTA = O=C(O)CN1CCN(CC(=O)O)CCN(CC(=O)*)CC1; Hyp = O=C(O)[C@@H]1C[C@@H](O)CN1; hArg = N=C(N)NCCCC[C@H](N)C(=O)O; PEG2 = NCCOCCOCCC(=O)O; Sar = CNCC(=O)O

Assay: Ex vivo biodistribution
Set-up: species or system NSG mice
Details: both sexes, NSG, mouse, in vivo, iv, 80 uCi, total radioactivity, mean ± SEM (n = 4 or 5); for tissue uptake at 5 min / tissue to tissue ratio at 5 min: 5 min p.i.; for tissue uptake at 5 min / tissue uptake at 0.5 h / tissue uptake at 1 h / tissue uptake at 1.5 h / tissue uptake at 2 h: i.v.; for tissue to tissue ratio at 5 min / tissue to tissue ratio at 0.5 h / tissue to tissue ratio at 1 h / tissue to tissue ratio at 1.5 h: dimensionless; for tissue uptake at 0.5 h / tissue to tissue ratio at 0.5 h: 30 min p.i.; for tissue uptake at 1 h / tissue to tissue ratio at 1 h: 60 min p.i.; for tissue uptake at 1.5 h / tissue to tissue ratio at 1.5 h: 90 min p.i.; for tissue uptake at 2 h: 120 min p.i.
Method: Animal studies were performed under Johns Hopkins University Animal Care and Use Committee (ACUC)-approved protocol (Principal investigator: Sridhar Nimmagadda, Ph.D. and Protocol number M021M175). Male and Female NSG mice (5-6 weeks old) were purchased from JHU immunocompromised core and used to establish xenografts by administering cells subcutaneously (top right flank, unless otherwise noted) to form various tumor models within 3-4 weeks. Following cell numbers were used: Panc1, AsPC1, BxPC3 (1 M), Hs766T and SU8686 (2 M), CFPAC and Panc1005 (5 M). Imaging or biodistribution studies (n = 3-5) were conducted on mice with tumor volumes of 100-200 mm^3. The Panc1 orthotopic tumor model was established by surgically implanting a 3-5 mm^3 section of Panc1 tumor xenograft directly onto the pancreas. The implanted tumors were allowed to grow and were ready for imaging after 10 days of implantation.
Mice with 100-200 mm^3 tumor volume were used for ex vivo biodistribution studies. For radiotracer pharmacokinetics and dosimetry studies, mice with Panc1 tumor xenograft received ~80 µCi (2.96 MBq) [^68Ga]AJ201 and were sacrificed at pre-determined time points (5, 30, 60, 90 and 120 min). All other mice were injected with ~50 µCi (1.85 MBq; 0.2 to 0.5 nmol) Ga-68 labeled radiotracer and were sacrificed at 60 min. The selected tissues were collected, weighed, counted, and their %ID/g values calculated for biodistribution analysis. For pharmacokinetics and dosimetry studies, selected tissues included blood, muscle, tumor, thymus, heart, lung, liver, pancreas, stomach, small intestine, large intestine, spleen, adrenals, kidney, bladder, femur, brain and tumor xenografts. For other studies, selected tissues were blood, muscle, tumor, heart, lung, liver, pancreas, small intestine, spleen, kidney.

[1] = read-out: Stomach with contents uptake

What does the source list for `CC(C)C[C@@H]1NC(=O)[C@@H]2CSCCC(=O)N3CN(CN(C3)C(=O)CCSC[C@H](NC(=O)[C@H](CC(=O)O)NC(=O)[C@H](CCCCNC(=N)N)NC(=O)[C@H](C)NC(=O)CNC(=O)CN(C)C(=O)CN(C)C(=O)CN(C)C(=O)[C@H](CCCNC(=N)N)NC(=O)CNC(=O)CCOCCOCCNC(=O)CN3CCN(CC(=O)O)CCN(CC(=O)O)CC3)C(=O)N3C[C@H](O)C[C@H]3C(=O)N[C@@H](CC(C)C)C(=O)N[C@@H](C(C)C)C(=O)N[C@@H](CC(N)=O)C(=O)N3CCC[C@H]3C(=O)N[C@@H](CC(C)C)C(=O)N2)C(=O)CCSC[C@@H](C(N)=O)NC(=O)[C@H](CCCCNC(=N)N)NC(=O)[C@H](Cc2c[nH]c3ccccc23)NC(=O)[C@@H](CC(=O)O)NC(=O)[C@@H]2CCCN2C(=O)[C@H](Cc2c[nH]cn2)NC1=O` [[^68Ga]AJ201, metal not drawn] ({NOTA-PEG2}-GR[Sar][Sar][Sar]GA[hArg]DC[Hyp]LVNPLCLHP[dD]W[hArg]C-NH2; linker 10-17-24 via TATA)?
tissue uptake at 5 min (read-out: Blood uptake): 8.2 ± 0.92 %ID/g; tissue uptake at 5 min (read-out: Brain uptake): 0.4 ± 0.08 %ID/g; tissue uptake at 5 min (read-out: Heart uptake): 4.19 ± 1.06 %ID/g; tissue uptake at 5 min (read-out: Liver uptake): 4.25 ± 0.99 %ID/g; tissue uptake at 5 min (read-out: Lung uptake): 8.24 ± 0.93 %ID/g; tissue uptake at 5 min (read-out: Muscle uptake): 1.79 ± 0.24 %ID/g; tissue uptake at 5 min (read-out: Pancreas uptake): 3.24 ± 0.08 %ID/g; tissue uptake at 5 min [1]: 1.8 ± 0.39 %ID/g; tissue uptake at 5 min (read-out: Thymus uptake): 4.61 ± 0.51 %ID/g; tissue uptake at 5 min (read-out: Tumor uptake): 7.06 ± 0.48 %ID/g; tissue to tissue ratio at 5 min (read-out: Tumor/Muscle ratio): 4.12 ± 0.66; tissue to tissue ratio at 5 min (read-out: Tumor/Pancreas ratio): 2.18 ± 0.14; tissue to tissue ratio at 5 min (read-out: Tumor/blood ratio): 0.89 ± 0.14; tissue uptake at 0.5 h (read-out: Blood uptake): 1.61 ± 0.18 %ID/g; tissue uptake at 0.5 h (read-out: Brain uptake): 0.09 ± 0.01 %ID/g; tissue uptake at 0.5 h (read-out: Heart uptake): 0.97 ± 0.15 %ID/g; tissue uptake at 0.5 h (read-out: Liver uptake): 1.15 ± 0.19 %ID/g; tissue uptake at 0.5 h (read-out: Lung uptake): 2.29 ± 0.26 %ID/g; tissue uptake at 0.5 h (read-out: Muscle uptake): 1.11 ± 0.34 %ID/g; tissue uptake at 0.5 h (read-out: Pancreas uptake): 0.74 ± 0.1 %ID/g; tissue uptake at 0.5 h [1]: 0.77 ± 0.31 %ID/g; tissue uptake at 0.5 h (read-out: Thymus uptake): 2.35 ± 0.66 %ID/g; tissue uptake at 0.5 h (read-out: Tumor uptake): 6.96 ± 0.31 %ID/g; tissue to tissue ratio at 0.5 h (read-out: Tumor/Muscle ratio): 6.4 ± 3.6; tissue to tissue ratio at 0.5 h (read-out: Tumor/Pancreas ratio): 7.08 ± 2.57; tissue to tissue ratio at 0.5 h (read-out: Tumor/blood ratio): 3.31 ± 1.17; tissue uptake at 1 h (read-out: Blood uptake): 0.49 ± 0.07 %ID/g; tissue uptake at 1 h (read-out: Brain uptake): 0.04 ± 0.01 %ID/g; tissue uptake at 1 h (read-out: Heart uptake): 0.29 ± 0.08 %ID/g; tissue uptake at 1 h (read-out: Liver uptake): 0.32 ± 0.02 %ID/g; tissue uptake at 1 h (read-out: Lung uptake): 0.65 ± 0.04 %ID/g; tissue uptake at 1 h (read-out: Muscle uptake): 0.21 ± 0.05 %ID/g; tissue uptake at 1 h (read-out: Pancreas uptake): 0.16 ± 0.01 %ID/g; tissue uptake at 1 h [1]: 0.15 ± 0.03 %ID/g; tissue uptake at 1 h (read-out: Tumor uptake): 4.68 ± 0.25 %ID/g; tissue to tissue ratio at 1 h (read-out: Tumor/Muscle ratio): 25.8 ± 6.71; tissue to tissue ratio at 1 h (read-out: Tumor/Pancreas ratio): 28.8 ± 0.97; tissue to tissue ratio at 1 h (read-out: Tumor/blood ratio): 9.86 ± 1.1; tissue uptake at 1.5 h (read-out: Blood uptake): 1.18 ± 0.27 %ID/g; tissue uptake at 1.5 h (read-out: Brain uptake): 0.05 ± 0.01 %ID/g; tissue uptake at 1.5 h (read-out: Femur uptake): 0.68 ± 0.11 %ID/g; tissue uptake at 1.5 h (read-out: Heart uptake): 0.76 ± 0.13 %ID/g; tissue uptake at 1.5 h (read-out: Liver uptake): 0.9 ± 0.17 %ID/g; tissue uptake at 1.5 h (read-out: Lung uptake): 1.4 ± 0.27 %ID/g; tissue uptake at 1.5 h (read-out: Muscle uptake): 0.37 ± 0.11 %ID/g; tissue uptake at 1.5 h (read-out: Pancreas uptake): 0.57 ± 0.15 %ID/g; tissue uptake at 1.5 h [1]: 0.27 ± 0.06 %ID/g; tissue uptake at 1.5 h (read-out: Thymus uptake): 1.64 ± 0.42 %ID/g; tissue uptake at 1.5 h (read-out: Tumor uptake): 6.04 ± 1.46 %ID/g; tissue to tissue ratio at 1.5 h (read-out: Tumor/Muscle ratio): 17 ± 2.11; tissue to tissue ratio at 1.5 h (read-out: Tumor/Pancreas ratio): 10.7 ± 0.2; tissue to tissue ratio at 1.5 h (read-out: Tumor/blood ratio): 5.43 ± 1.32; tissue uptake at 2 h (read-out: Blood uptake): 0.9 ± 0.29 %ID/g; tissue uptake at 2 h (read-out: Brain uptake): 0.05 ± 0.01 %ID/g; tissue uptake at 2 h (read-out: Femur uptake): 0.83 ± 0.33 %ID/g; tissue uptake at 2 h (read-out: Heart uptake): 0.68 ± 0.17 %ID/g; tissue uptake at 2 h (read-out: Liver uptake): 0.84 ± 0.13 %ID/g; tissue uptake at 2 h (read-out: Lung uptake): 1.15 ± 0.22 %ID/g; tissue uptake at 2 h (read-out: Muscle uptake): 0.26 ± 0.04 %ID/g
